# The source made the active and inactive calls.
# What was measured:
# BJ [1] = assay: cells; format: functional, cell-based; conditions: Homo sapiens
# [2] = cytotoxicity toward DRD oncogenic fibroblasts, dose response, cell-based, non-viral oncogenic, luminescence (AID 1934); format: functional; conditions: Homo sapiens
# BJ [3] = assay: cytotoxicity toward BJ-TERT fibroblasts, dose response, cell-based, RAS-independent, luminescence (AID 1933); format: functional; conditions: Homo sapiens
# cells [4] = assay: cells
# Vero [5] = assay: cells; format: functional; conditions: Chlorocebus sabaeus
# BJ [6] = assay: cytotoxicity toward BJ-TERT-LT-ST fibroblasts, dose response, cell-based, RAS-independent, luminescence (AID 1935); format: functional; conditions: Homo sapiens;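 also: BJ fibroblasts immortalized with TERT plus LT and ST oncogenes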
# Vero [7] = assay: cells; format: functional, cell-based; conditions: Chlorocebus sabaeus
# [8] = HEp-2 cell cytotoxicity, dose response, cytotoxicity control for RSV inhibitor project, HTS (AID 2410); format: functional; conditions: human respiratory syncytial virus
# Protein skinhead-1 = target: T1, Protein skinhead-1 (Caenorhabditis elegans, UniProt P34707); format: functional
# T1 sequence (P34707 whole entry): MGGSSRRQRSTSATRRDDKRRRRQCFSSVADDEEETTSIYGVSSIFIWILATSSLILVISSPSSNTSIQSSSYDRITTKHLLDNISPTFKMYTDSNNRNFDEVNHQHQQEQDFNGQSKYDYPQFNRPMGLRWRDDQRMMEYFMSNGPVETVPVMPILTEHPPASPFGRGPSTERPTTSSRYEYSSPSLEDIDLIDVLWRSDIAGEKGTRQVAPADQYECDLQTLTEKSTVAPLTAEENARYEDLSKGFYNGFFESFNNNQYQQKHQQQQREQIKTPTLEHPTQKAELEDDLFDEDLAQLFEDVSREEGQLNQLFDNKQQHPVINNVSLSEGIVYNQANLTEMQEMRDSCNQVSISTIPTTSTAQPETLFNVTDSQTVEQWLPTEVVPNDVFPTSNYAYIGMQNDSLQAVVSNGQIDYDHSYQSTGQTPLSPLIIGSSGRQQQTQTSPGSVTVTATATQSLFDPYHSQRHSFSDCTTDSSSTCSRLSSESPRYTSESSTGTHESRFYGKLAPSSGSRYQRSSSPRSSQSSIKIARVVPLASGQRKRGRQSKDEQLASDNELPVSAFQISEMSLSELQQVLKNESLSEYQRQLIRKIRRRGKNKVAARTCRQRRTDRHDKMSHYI
# [9] = M. tuberculosis H37Rv growth inhibitors, H37Rv strain (AID 1626); format: functional
# [10] = target: T2, Oxysterols receptor LXR-beta (Homo sapiens, UniProt P55055); format: functional, cell-based;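 also: Cell-based luminescence dose-response assay of agonist activity at LXR, run as a confirmatory counterscreen to a daf-12 agonist screen; HEK293 cells with Gal4-LXR fusion and GAL4-driven luciferase reporter; agonist potency from rising luciferase signal of a Gal4-LXR reporter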
# T2 sequence (P55055 whole entry): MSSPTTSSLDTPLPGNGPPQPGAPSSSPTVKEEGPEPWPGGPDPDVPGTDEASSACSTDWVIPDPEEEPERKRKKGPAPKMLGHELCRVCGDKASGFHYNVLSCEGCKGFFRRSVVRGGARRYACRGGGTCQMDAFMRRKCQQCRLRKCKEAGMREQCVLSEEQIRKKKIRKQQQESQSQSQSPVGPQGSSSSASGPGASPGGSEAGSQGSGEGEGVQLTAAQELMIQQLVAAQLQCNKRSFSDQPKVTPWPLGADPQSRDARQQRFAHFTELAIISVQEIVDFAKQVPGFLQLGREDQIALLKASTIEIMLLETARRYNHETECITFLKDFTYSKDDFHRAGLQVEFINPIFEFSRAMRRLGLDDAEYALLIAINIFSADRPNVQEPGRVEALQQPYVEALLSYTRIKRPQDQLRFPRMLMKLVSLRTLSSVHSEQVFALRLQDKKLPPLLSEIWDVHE
# cells [11] = assay: cells; remark: listed apart in the source
# [12] = target: Lysosomal acid glucosylceramidase (Homo sapiens, UniProt P04062); assay: Dose response cell-based high throughput screening assay to identify enhancers of beta-glucosidase activity. [Related pubchem assays: 784 ]; format: functional
# [13] = Luminescence Cell-Based Dose Response HTS to Identify Activators of Luciferase Translation or Activity in H4 […] Cells. [Related pubchem assays: 1829 (Project Summary), 1814 (Primary HTS)]; format: functional
# [14] = target: T3, Sentrin-specific protease 8 (Homo sapiens, UniProt Q96LD8); format: functional;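 also: luminescence read-out of SENP8 inhibition, dose-response confirmation following an ultra-high-throughput screen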
# T3 sequence (Q96LD8 whole entry): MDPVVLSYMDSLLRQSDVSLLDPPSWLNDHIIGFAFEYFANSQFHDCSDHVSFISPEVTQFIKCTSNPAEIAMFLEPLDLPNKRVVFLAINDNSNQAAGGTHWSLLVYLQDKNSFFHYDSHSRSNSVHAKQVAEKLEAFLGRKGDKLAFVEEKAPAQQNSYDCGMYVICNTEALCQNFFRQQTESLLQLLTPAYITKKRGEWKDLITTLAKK
# [15] = Luminescence Cell-Based Dose Response to Identify Activators of Luciferase Translation or Activity in H4-C Neuroglioblastoma Cells. [Related pubchem assays: 1829 (Project Summary), 1814 (Primary HTS)]; format: functional
# [16] = Luminescence Cell-Based Dose Response to Identify Activators of 5'UTR Stem-Loop Driven Prion Protein mRNA Translation in H4-C Neuroglioblastoma Cells. [Related pubchem assays: 1829 (Project Summary), 1814 (Primary HTS)]; format: functional
# [17] = cytotoxicity in KRAS-transformed pancreatic duct cells, primary screen, cell-based, fluorescence, HTS (AID 431); format: functional; conditions: Homo sapiens;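 also: cell line used: HPDE-C7K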
# [18] = cytotoxicity in HPDE-C7 cells, cell-based, fluorescence, HTS (AID 430); format: functional; conditions: Homo sapiens
# [19] = target: Disintegrin and metalloproteinase domain-containing protein 17 (Homo sapiens, UniProt P78536); assay: exosite inhibitors of ADAM17, dose response, biochemical (AID 743260)
# Caspase-3 = target: T4, Caspase-3 (Homo sapiens, UniProt P42574); format: functional;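 also: Dose-response selectivity test against caspase-3 for candidate inhibitors of sentrin-specific proteases (SENPs)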
# T4 sequence (P42574 whole entry): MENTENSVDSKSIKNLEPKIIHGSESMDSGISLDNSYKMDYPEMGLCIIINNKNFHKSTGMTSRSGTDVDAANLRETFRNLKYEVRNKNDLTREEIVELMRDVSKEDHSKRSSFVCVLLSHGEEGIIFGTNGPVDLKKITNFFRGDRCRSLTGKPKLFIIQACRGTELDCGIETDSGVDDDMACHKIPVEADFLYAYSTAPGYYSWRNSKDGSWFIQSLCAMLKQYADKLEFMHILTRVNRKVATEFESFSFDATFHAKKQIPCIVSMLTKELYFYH
# H4 = assay: Luminescence Cell-Based Dose Response HTS to Identify Activators of 5'UTR Stem-Loop Driven Prion Protein mRNA Translation in H4 Neuroglioblastoma Cells. [Related pubchem assays: 1829 (Project Summary), 1814 (Primary HTS)]; format: functional; conditions: Homo sapiens
# [20] = Luminescence Cell-Based Dose Confirmation to Identify Activators of 5'UTR Stem-Loop Driven Alpha-Synuclein mRNA Translation in H4 Neuroglioblastoma Cells. [Related pubchem assays: 1829 (Project Summary), 1814 (Primary HTS)]; format: functional
# [21] = target: T5, Sentrin-specific protease 6 (Homo sapiens, UniProt Q9GZR1); format: functional;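 also: Luminescence-based dose-response confirmatory assay of SENP6 inhibition, following up an ultra-high-throughput screen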
# T5 sequence (Q9GZR1 whole entry): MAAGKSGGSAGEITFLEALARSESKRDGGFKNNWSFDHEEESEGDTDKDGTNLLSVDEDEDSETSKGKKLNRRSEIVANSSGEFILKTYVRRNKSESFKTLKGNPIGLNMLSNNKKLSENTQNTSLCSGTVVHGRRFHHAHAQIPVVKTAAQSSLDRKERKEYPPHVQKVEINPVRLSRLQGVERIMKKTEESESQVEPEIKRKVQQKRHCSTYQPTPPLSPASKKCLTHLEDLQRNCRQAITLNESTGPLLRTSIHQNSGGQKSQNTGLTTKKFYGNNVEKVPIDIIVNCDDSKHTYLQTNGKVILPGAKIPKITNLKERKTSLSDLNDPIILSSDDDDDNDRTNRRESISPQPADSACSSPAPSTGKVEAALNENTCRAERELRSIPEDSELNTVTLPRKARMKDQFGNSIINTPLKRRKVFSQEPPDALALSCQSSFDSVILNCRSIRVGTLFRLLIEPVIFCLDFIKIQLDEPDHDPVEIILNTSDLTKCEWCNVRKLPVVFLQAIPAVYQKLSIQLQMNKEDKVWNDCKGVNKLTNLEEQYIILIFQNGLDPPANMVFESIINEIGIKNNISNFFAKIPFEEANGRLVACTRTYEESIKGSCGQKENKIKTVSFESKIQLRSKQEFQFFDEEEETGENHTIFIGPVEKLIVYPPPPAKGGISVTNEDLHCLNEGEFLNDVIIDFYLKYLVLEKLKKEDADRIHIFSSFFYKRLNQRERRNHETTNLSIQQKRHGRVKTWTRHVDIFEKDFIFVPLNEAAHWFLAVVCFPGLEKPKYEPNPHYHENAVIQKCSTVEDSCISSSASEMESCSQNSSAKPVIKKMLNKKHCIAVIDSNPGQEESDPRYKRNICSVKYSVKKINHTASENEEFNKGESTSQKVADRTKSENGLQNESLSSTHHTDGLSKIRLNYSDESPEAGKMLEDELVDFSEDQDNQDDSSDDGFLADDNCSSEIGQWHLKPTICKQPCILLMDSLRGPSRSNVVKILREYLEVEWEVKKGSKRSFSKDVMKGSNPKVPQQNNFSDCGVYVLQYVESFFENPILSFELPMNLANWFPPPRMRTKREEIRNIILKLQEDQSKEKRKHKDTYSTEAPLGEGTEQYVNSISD
# [22] = target: T6, Sentrin-specific protease 7 (Homo sapiens, UniProt Q9BQF6); format: functional;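 also: Luminescence-based dose-response confirmation of ultra-high-throughput screening hits, measuring inhibition of SENP7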
# T6 sequence (Q9BQF6 whole entry): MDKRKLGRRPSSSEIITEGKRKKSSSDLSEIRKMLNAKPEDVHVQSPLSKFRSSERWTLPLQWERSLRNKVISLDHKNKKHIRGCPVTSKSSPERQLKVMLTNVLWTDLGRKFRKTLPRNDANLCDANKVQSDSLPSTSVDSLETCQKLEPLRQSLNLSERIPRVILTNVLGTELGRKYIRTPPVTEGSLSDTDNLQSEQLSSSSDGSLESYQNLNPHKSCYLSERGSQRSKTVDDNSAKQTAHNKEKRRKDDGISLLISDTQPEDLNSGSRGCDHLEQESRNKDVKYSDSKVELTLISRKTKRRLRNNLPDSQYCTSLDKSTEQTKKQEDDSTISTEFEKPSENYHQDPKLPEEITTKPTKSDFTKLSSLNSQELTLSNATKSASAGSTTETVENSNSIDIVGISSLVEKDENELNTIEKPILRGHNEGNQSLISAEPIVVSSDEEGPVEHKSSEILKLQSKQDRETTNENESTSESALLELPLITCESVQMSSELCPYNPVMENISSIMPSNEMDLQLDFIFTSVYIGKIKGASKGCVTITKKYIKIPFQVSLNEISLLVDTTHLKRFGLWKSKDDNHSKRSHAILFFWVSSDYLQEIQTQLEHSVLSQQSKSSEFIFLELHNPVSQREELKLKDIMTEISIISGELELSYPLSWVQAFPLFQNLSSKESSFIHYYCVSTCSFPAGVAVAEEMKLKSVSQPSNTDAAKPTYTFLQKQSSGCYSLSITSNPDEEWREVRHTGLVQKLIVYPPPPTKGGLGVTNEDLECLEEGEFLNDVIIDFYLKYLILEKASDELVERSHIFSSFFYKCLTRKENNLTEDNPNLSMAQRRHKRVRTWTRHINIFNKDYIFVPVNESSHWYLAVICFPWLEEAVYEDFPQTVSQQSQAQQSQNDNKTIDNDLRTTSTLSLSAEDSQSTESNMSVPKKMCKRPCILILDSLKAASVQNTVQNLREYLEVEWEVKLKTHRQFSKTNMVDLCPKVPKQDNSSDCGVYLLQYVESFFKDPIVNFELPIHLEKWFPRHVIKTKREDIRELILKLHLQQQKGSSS
# Aminopeptidase N = Aminopeptidase N (Plasmodium falciparum FcB1/Columbia, UniProt O96935); assay: P. falciparum M1AAP inhibitors, biochemical, fluorogenic H-Leu-NHMec substrate, 1536-well (AID 1445); design: species or system Plasmodium falciparum 3D7, 3D7
# [23] = target: T7, Polyadenylate-binding protein 1 (Homo sapiens, UniProt P11940); assay: PABP1 MLLE–PAM2 binding inhibitor potency, dose response, biochemical, fluorescence polarization, FITC-PAM2 peptide (AID 602259); format: functional; conditions: read-out: IC50_Mean
# [24] = target: T7, Polyadenylate-binding protein 1; assay: PABP1 MLLE–PAM2 interaction inhibitors, dose response, miRNA deadenylation inhibitor project, biochemical, fluorescence polarization, Cy5-PAM2 peptide, secondary (AID 602260); format: functional; conditions: read-out: IC50_Mean
# [25] = cytotoxicity toward NIH3T3 fibroblasts, dose response, counter-screen, cell-based, ATP luminescence, mouse fibroblasts (AID 2010); format: functional;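 also: cells exposed to compound for about 90 hours before reading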
# [26] = inhibitors of intracellular T. cruzi replication, confirmation, NIH3T3 host cells, beta-gal luminescence (AID 2044); format: functional, cell-based;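 also: intracellular parasites grown in NIH/3T3 mouse fibroblasts as host cells; luminescent beta-galactosidase reporter signal from transgenic T. cruzi replicating inside host cells; inhibitors lower the luminescence signal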
# T7 sequence (P11940 whole entry): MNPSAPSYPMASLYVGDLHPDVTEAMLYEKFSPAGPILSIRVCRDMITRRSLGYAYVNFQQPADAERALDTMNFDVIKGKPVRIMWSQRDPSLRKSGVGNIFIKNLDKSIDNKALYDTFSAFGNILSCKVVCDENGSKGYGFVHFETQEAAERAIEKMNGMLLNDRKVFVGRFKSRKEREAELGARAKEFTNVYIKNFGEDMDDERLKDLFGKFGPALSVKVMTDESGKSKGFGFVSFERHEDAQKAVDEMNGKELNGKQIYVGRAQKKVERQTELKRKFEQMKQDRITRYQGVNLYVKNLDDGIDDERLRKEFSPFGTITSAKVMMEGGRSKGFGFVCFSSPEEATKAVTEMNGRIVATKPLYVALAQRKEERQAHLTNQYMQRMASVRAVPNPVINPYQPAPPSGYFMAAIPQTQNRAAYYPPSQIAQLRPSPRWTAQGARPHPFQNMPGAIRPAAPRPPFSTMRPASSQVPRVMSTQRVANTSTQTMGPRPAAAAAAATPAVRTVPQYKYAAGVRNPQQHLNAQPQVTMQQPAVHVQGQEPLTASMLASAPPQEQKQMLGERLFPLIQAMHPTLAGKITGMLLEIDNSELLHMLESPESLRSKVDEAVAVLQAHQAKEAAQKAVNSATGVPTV
# Sequence of Lysosomal acid glucosylceramidase (P04062 whole entry): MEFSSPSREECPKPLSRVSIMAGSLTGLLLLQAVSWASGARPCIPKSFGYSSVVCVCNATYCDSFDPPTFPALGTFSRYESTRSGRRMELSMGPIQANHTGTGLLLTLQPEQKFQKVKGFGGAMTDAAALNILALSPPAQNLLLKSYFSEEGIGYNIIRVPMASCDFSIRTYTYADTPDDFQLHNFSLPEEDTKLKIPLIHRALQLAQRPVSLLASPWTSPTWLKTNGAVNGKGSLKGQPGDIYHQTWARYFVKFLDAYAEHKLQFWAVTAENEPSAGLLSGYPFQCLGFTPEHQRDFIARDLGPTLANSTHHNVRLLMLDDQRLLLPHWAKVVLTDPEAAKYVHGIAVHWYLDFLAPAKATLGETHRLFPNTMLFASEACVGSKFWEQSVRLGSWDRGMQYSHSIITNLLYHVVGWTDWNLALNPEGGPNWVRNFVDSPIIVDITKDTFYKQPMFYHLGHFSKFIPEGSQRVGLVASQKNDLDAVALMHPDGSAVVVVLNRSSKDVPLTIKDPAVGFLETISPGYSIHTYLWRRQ
# Sequence of Aminopeptidase N (O96935 whole entry): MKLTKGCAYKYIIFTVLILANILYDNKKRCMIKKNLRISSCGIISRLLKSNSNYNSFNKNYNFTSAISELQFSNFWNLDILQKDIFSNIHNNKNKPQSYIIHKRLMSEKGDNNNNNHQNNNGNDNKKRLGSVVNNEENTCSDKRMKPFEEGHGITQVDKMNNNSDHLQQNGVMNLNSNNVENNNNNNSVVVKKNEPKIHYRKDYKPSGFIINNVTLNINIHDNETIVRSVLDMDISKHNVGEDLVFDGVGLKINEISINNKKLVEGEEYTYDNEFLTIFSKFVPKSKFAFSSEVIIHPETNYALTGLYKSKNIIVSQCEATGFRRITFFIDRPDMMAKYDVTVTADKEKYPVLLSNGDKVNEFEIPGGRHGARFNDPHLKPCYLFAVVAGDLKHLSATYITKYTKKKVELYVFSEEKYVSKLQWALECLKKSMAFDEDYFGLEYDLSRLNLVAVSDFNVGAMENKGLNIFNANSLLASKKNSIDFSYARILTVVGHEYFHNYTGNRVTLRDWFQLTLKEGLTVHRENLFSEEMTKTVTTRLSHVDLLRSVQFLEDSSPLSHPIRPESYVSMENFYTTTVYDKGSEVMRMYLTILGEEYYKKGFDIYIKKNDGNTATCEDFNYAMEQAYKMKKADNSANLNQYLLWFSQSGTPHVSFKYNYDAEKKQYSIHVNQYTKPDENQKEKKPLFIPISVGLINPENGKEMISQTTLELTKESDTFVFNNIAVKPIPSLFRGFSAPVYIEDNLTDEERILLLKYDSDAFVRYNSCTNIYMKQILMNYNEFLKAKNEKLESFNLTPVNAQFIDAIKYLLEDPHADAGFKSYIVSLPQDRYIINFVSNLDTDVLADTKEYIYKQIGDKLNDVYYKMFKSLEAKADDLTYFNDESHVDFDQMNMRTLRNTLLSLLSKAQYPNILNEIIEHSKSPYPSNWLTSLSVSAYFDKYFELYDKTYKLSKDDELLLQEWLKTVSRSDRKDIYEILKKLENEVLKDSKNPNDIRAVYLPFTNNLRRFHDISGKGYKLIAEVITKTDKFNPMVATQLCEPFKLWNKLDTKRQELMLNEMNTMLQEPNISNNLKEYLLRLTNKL
# Sequence of Disintegrin and metalloproteinase domain-containing protein 17 (P78536 whole entry, the tested form may be a part): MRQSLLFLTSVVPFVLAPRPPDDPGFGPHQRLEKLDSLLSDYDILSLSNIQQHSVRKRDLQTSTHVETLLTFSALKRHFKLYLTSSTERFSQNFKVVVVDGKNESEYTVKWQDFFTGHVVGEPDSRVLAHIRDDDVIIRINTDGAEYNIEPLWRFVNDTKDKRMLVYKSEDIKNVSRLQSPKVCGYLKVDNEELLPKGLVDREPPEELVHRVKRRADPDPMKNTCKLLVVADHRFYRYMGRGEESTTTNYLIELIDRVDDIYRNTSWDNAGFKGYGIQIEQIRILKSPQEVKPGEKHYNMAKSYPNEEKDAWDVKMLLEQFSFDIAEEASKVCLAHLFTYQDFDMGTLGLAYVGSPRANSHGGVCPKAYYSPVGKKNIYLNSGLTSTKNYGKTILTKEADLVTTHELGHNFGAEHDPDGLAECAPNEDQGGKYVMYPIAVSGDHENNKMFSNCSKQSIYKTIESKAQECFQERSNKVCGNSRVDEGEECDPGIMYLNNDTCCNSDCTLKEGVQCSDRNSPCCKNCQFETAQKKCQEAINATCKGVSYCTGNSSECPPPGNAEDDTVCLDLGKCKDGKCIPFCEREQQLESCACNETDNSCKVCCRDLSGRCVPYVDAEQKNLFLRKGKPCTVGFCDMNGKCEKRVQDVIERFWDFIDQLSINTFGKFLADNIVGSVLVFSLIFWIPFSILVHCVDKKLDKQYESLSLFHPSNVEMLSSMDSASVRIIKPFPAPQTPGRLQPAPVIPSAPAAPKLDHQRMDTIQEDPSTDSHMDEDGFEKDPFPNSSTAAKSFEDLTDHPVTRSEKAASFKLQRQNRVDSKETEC
compound,measurement,setting,value
COc1cc(NC(=S)NC(=O)c2ccc(C(C)(C)C)cc2)ccc1NC(=O)c1cccs1,EC50,BJ [1],32.9 µM (inconclusive)
same,EC50,[2],72.6 µM (active)
same,EC50,BJ [3],60.4 µM (active)
same,IC50,cells [4],8.44 µM (active)
same,CC50,Vero [5],> 25 µM (active)
same,EC50,BJ [6],> 150 µM (inconclusive)
same,IC50,Vero [7],2.5 µM (active)
same,CC50,[8],18.9 µM (active)
Cc1ccc(N/C=C(/C(=O)c2ccco2)C(=O)C(F)(F)F)cc1Cl,IC50,Protein skinhead-1,27.2 µM (active)
same,IC50,[9],> 100 µM (active)
same,EC50,[10],> 67.5 µM (inactive)
same,EC50,cells [11],> 67.5 µM (inactive)
O=C(CCS(=O)(=O)c1cccc2nonc12)N1CCCc2ccccc21,EC50,[12],> 50 µM (not active)
CC(C)(C)c1ccc(OCc2nc(-c3ccccn3)no2)c(Br)c1,EC50,[13],< 0.1 µM (active)
same,IC50,[14],13.5 µM (active)
same,EC50,[15],0.91 µM (active)
same,EC50,[16],0.683 µM (active)
same,EC50,[17],11.9 µM (active)
same,EC50,[18],11.5 µM (active)
same,IC50,[19],> 69.5 µM (inactive)
same,IC50,Caspase-3,33.8 µM (active)
same,EC50,H4,< 0.1 µM (active)
same,EC50,[20],0.114 µM (active)
same,IC50,[21],17.6 µM (active)
same,IC50,[22],5.88 µM (active)
Sc1nnc(Cc2ccccc2)n1Cc1ccco1,EC50,[12],> 50 µM (not active)
CCNc1cc2oc(=O)c(CN3CCOCC3)c(C)c2cc1C,IC50,Aminopeptidase N,32.2 µM (active)
same,IC50,[23],> 66 µM (inactive)
same,IC50,[24],> 66 µM (inactive)
CCOc1ccc2nc(NC(=O)CSC3=NCCS3)sc2c1,IC50,[9],> 100 µM (active)
COC(=O)c1cc(NC(=O)CC2S/C(=N/c3ccccc3)N(CCc3c[nH]c4ccccc34)C2=O)cc(C(=O)OC)c1 (centres undefined),EC50,[25],> 60 µM (inconclusive)
same,EC50,[26],1.11 µM (active)
same,IC50,cells [4],41.7 µM (active)
same,CC50,[8],> 50 µM (active)
